Test results as given in ChEMBL document CHEMBL1201862, “PubChem BioAssay data set” (2004).
Activity calls are given as the source filed them.

Assays:
Estrogen receptor beta [1] = biological target: T1, Estrogen receptor beta (Homo sapiens, UniProt Q92731); assay: ERβ–SRC-3 coactivator interaction inhibitors, confirmation, orthogonal assay, biochemical, ELISA, streptavidin-HRP readout (AID 1060)
Bcl-2-like protein 10 = Bcl-2-like protein 10 (Homo sapiens, UniProt Q9HD36); assay: displacers of TR3 peptide from Bcl-B, primary screen, selectivity assay for Bfl-1 inhibitor project, biochemical, fluorescence polarization, FITC-TR3 peptide (AID 748);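 also: fluorescence polarization from a fluorescein-labelled TR3 peptide binding purified Bcl-B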
Estrogen receptor beta [2] = biological target: T1, Estrogen receptor beta
Genome polyprotein = Genome polyprotein (Hepatitis C virus, UniProt Q2Q167); assay: HCV core protein dimerization inhibitors, dose response, biochemical, TR-FRET (AID 2159); parameters: species or system Hepacivirus hominis;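 also: blocks dimerization of HCV core protein measured by TR-FRET between tagged core106 pairs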
SUMO E1/E2 = SUMO E1/E2 (Homo sapiens, UniProt P63279+Q9UBE0+Q9UBT2); assay: SAR analysis of SUMOylation using HTRF in an in-Vitro dose response assay. [Related pubchem assays (depositor defined):AID2006, AID2011, AID2018, AID2069, AID2658]; format: functional
[3] = biological target: T2, Voltage-gated N-type calcium channel alpha-1B subunit/Amyloid beta A4 precursor protein-binding family A member 1 (Homo sapiens, UniProt Q00975+Q02410); assay: disruptors of Mint-PDZ/N-type channel peptide interaction – biochemical, HTRF, SAR follow-up (AID 2489); format: functional
[4] = biological target: T2, Voltage-gated N-type calcium channel alpha-1B subunit/Amyloid beta A4 precursor protein-binding family A member 1; assay: disruptors of Mint-PDZ/N-type channel peptide interaction – biochemical, HTRF, set 2, SAR follow-up (AID 434980); format: functional
[5] = biological target: T3, Induced myeloid leukemia cell differentiation protein Mcl-1 (Homo sapiens, UniProt Q07820); format: functional
[6] = biological target: T3, Induced myeloid leukemia cell differentiation protein Mcl-1; assay: MCL1-BIM BH3 interaction inhibitors, dose response, biochemical, fluorescence polarization, BIM-BH3 peptide, 1536-well (AID 2217)
[7] = A Cell Based Secondary Assay To Explore Cytotoxicity of Compounds that Sensitize Mycobacterium Tuberculosis to Beta-Lactam Antibiotics.; format: functional
Bcl-2-like protein 1 = Bcl-2-like protein 1 (Homo sapiens, UniProt Q07817); assay: BCL-XL inhibitors, dose response, selectivity assay for MCL1 inhibitor project, biochemical, fluorescence polarization, 1536-well (AID 2218)
Prothrombin = Prothrombin (Homo sapiens, UniProt P00734); assay: Thrombin 1536 HTS Dose Response Confirmation. [Related pubchem assays: 1046 (Thrombin 1536 HTS; hits were confirmed in this assay)]; format: functional
[8] = biological target: T4, Microphthalmia-associated transcription factor (Homo sapiens, UniProt O75030); assay: TRPM1 promoter luciferase signal decrease, dose response, MITF inhibitor project, cell-based, SK-MEL-5, cherry-picked, set 3 (AID 493073); format: functional
T4 sequence (O75030 whole entry): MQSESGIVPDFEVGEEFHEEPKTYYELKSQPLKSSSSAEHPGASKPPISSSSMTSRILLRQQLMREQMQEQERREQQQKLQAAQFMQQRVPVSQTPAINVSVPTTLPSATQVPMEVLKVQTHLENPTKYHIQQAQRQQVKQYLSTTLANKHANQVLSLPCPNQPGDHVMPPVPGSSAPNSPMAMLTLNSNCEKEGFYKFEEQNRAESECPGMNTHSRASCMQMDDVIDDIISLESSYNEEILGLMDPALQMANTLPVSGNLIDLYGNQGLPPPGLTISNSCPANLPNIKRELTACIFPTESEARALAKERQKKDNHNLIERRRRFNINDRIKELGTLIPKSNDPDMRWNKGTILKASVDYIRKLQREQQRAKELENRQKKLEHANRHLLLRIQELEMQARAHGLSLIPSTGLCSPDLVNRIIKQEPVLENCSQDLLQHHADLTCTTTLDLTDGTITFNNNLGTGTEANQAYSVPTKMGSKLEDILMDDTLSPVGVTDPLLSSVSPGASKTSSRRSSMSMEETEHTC

[9] = biological target: T5, Heat shock factor protein 1 (Mus musculus, UniProt P38532); assay: inhibition of MG132-induced HSE-luciferase signal, confirmation, cell-based, NIH3T3, luminescence, dose retest (AID 2382); format: functional;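 also: NIH3T3 fibroblasts with HSF1-driven luciferase reporter stressed by proteasome inhibitor MG132; luminescence from HSF1-driven luciferase expression after 8 hours of MG132 stress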
T5 sequence (P38532 whole entry): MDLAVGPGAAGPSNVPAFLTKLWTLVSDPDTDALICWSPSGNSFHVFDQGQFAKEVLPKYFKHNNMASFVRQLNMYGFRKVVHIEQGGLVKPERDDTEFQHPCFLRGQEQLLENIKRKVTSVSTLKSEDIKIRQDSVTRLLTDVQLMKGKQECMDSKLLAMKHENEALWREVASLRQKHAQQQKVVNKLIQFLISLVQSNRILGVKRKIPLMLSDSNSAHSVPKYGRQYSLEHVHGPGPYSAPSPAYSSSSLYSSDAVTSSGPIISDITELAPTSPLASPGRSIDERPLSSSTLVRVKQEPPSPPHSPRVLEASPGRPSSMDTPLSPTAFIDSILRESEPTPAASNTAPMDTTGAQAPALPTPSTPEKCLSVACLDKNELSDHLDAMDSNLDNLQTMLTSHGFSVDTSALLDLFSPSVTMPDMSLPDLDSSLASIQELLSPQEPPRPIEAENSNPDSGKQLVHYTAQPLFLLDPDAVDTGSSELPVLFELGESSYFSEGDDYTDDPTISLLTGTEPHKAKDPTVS

[10] = biological target: Heat shock protein HSP 90-alpha (Homo sapiens, UniProt P07900); assay: Luminescence-based dose response biochemical high throughput screening assay for inhibitors of the Heat Shock Protein 90 (HSP90). [Related pubchem assays: 1831 (Summary AID.), 1846 (Confirmation screen.), 1789 (Primary screen.)]
[11] = cytotoxicity toward NIH3T3 fibroblasts, dose response, counter-screen, cell-based, ATP luminescence, mouse fibroblasts (AID 2010); format: functional;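 also: cells exposed to compound for about 90 hours before reading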
[12] = inhibitors of intracellular T. cruzi replication, confirmation, NIH3T3 host cells, beta-gal luminescence (AID 2044); format: functional, cell-based;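 also: intracellular parasites grown in NIH/3T3 mouse fibroblasts as host cells; luminescent beta-galactosidase reporter signal from transgenic T. cruzi replicating inside host cells; inhibitors lower the luminescence signal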
Ion channel NompC = Ion channel NompC (Danio rerio, UniProt Q7T1G6); assay: Fluorescence counterscreen assay for TRPML3 agonists: dose response cell-based high-throughput screening assay to identify agonists of the transient receptor potential channel N1 (TRPN1). [Related pubchem assays: 1526, 1424, 1448 ]; format: functional
Mucolipin-3 = Mucolipin-3 (Homo sapiens, UniProt Q8TDD5); assay: Dose response cell-based high-throughput screening assay for agonists of the transient receptor potential channel ML3 (TRPML3). [Related pubchem assays: 1526, 1424, 1448 ]; format: functional
[13] = Luminescence Cell-Based Dose Confirmation to Identify Activators of 5'UTR Stem-Loop Driven Alpha-Synuclein mRNA Translation in H4 Neuroglioblastoma Cells. [Related pubchem assays: 1829 (Project Summary), 1814 (Primary HTS)]; format: functional
[14] = Luminescence Cell-Based Dose Response to Identify Activators of 5'UTR Stem-Loop Driven Prion Protein mRNA Translation in H4-C Neuroglioblastoma Cells. [Related pubchem assays: 1829 (Project Summary), 1814 (Primary HTS)]; format: functional
[15] = Luminescence Cell-Based Dose Confirmation HTS to Identify Activators of 5'UTR Stem-Loop Driven Alpha-Synuclein mRNA Translation in H4 Neuroglioblastoma Cells. [Related pubchem assays: 1829 (Project Summary), 1814 (Primary HTS)]; format: functional
[16] = Luminescence Cell-Based Dose Response HTS to Identify Activators of Luciferase Translation or Activity in H4 […] Cells. [Related pubchem assays: 1829 (Project Summary), 1814 (Primary HTS)]; format: functional
[17] = Luminescence Cell-Based Dose Response to Identify Activators of Luciferase Translation or Activity in H4-C Neuroglioblastoma Cells. [Related pubchem assays: 1829 (Project Summary), 1814 (Primary HTS)]; format: functional
Estrogen receptor = biological target: T6, Estrogen receptor (Homo sapiens, UniProt P03372); assay: potentiators of ERα–SRC-1 coactivator binding, dose response, biochemical, TR-FRET, ERα LBD (AID 737)
T6 sequence (P03372 whole entry): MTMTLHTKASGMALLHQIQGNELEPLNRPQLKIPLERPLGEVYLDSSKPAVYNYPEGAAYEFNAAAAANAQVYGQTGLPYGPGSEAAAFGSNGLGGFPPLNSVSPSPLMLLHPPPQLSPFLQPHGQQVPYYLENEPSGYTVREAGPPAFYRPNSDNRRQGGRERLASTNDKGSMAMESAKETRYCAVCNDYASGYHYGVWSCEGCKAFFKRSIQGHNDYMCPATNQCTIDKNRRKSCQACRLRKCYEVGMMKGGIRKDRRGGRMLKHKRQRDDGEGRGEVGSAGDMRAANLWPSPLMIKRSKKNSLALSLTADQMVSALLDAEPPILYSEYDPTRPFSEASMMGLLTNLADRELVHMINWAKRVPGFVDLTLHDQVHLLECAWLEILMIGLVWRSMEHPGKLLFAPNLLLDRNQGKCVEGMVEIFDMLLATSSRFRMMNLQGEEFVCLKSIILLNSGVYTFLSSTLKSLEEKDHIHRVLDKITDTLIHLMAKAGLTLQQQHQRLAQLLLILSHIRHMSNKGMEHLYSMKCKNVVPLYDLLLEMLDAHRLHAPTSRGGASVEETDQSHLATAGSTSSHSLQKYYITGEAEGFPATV

T3 sequence (Q07820 whole entry): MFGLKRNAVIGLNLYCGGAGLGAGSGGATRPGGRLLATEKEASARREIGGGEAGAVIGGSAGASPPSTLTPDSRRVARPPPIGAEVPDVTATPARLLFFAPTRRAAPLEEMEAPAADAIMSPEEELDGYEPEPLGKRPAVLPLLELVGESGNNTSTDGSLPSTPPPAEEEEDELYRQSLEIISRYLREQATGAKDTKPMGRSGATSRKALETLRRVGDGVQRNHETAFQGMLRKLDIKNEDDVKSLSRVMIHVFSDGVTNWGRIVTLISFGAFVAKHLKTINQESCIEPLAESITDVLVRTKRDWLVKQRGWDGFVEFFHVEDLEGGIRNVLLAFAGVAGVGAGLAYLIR
T1 sequence (Q92731 whole entry): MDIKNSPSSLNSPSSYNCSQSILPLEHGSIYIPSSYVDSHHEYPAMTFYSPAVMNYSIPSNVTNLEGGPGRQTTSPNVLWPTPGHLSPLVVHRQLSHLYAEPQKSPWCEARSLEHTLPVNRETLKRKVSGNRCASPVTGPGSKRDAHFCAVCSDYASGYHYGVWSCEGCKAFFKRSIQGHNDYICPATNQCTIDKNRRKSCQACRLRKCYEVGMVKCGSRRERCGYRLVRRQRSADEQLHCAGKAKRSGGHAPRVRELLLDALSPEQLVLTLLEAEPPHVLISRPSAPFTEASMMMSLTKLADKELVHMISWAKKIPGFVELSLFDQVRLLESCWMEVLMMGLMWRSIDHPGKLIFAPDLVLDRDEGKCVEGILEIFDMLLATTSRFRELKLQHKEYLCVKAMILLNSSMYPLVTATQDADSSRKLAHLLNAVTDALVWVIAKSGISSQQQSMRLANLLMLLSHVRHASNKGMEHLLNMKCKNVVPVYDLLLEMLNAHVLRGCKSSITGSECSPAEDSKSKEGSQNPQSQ
T2 sequence (Q00975 whole entry): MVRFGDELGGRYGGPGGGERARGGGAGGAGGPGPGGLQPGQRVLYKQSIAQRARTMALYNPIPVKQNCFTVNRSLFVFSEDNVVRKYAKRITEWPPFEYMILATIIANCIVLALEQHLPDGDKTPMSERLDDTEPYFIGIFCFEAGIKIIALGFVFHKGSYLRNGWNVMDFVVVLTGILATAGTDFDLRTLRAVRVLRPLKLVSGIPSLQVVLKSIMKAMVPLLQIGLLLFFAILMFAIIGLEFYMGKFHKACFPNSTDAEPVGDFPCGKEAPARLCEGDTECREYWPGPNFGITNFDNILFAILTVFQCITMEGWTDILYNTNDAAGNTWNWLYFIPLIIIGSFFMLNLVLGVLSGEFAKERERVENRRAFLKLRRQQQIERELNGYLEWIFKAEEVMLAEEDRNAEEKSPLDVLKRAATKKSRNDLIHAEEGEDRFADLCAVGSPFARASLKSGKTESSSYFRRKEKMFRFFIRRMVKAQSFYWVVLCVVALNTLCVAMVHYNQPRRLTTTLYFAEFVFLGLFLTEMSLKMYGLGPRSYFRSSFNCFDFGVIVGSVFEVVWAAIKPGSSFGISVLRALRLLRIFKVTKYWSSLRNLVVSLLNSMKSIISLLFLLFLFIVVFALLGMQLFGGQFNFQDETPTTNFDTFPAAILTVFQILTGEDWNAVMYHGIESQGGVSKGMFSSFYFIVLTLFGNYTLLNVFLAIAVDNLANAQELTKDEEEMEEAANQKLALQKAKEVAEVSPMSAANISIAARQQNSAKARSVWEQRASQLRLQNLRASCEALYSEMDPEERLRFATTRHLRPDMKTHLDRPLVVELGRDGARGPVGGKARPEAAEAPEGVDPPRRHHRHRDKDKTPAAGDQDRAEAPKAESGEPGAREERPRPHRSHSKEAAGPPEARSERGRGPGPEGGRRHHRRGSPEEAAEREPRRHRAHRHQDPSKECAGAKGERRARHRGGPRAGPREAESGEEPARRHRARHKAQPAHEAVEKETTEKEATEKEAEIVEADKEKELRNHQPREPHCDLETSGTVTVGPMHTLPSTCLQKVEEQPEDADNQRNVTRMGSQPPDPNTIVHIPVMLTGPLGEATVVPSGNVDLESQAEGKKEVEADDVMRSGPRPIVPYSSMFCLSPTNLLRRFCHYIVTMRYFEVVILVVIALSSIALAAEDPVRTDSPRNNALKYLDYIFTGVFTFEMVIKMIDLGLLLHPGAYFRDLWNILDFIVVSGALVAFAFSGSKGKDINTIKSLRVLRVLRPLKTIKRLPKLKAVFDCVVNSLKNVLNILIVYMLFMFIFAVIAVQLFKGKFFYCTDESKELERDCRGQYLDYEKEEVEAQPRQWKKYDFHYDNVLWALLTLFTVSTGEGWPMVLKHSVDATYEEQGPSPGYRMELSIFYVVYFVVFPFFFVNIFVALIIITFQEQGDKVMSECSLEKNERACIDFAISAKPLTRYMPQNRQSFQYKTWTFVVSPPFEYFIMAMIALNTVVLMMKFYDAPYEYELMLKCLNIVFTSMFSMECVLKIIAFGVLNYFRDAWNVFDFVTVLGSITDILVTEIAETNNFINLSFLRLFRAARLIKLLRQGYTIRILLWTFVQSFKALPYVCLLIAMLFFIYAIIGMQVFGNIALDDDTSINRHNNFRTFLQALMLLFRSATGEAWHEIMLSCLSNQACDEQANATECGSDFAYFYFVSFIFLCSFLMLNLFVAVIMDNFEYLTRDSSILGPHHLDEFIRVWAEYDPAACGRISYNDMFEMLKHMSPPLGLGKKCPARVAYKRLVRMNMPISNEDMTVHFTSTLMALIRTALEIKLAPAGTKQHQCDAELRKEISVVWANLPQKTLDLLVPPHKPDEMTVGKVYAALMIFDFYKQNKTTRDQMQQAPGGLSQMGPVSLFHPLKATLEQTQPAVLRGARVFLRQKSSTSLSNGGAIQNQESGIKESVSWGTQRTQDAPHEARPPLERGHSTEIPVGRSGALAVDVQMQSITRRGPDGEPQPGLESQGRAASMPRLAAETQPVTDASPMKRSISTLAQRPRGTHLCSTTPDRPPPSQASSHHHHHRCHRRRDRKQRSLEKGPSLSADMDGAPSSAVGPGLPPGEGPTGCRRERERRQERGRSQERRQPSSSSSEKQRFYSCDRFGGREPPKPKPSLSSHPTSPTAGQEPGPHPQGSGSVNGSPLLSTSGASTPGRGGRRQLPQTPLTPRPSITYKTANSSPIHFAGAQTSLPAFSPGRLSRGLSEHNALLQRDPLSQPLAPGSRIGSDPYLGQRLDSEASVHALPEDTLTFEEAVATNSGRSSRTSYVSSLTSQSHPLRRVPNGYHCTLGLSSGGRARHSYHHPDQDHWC
T2 sequence (Q02410 whole entry): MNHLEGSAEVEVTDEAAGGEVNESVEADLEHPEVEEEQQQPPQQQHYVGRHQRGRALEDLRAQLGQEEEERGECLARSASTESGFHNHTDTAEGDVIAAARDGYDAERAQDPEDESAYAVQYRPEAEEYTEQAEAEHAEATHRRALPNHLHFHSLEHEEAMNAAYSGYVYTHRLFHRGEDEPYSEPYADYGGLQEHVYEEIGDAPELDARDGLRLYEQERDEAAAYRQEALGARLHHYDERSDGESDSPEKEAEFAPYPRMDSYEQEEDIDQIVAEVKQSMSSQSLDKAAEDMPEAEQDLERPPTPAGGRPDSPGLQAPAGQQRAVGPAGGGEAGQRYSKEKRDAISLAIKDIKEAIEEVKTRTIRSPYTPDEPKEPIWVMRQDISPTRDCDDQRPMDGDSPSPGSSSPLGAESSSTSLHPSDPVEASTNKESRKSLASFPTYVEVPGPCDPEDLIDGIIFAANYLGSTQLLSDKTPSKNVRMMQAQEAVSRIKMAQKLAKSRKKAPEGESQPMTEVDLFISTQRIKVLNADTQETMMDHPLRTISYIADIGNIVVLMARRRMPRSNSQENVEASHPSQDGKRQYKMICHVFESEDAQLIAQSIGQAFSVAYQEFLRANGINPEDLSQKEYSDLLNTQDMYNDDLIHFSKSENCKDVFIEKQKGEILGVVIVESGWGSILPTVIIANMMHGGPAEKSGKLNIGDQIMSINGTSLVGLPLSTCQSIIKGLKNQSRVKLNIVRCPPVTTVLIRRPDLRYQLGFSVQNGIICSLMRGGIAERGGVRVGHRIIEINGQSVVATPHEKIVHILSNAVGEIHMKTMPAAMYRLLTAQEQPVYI
Bcl-2-like protein 1, sequence (Q07817 whole entry): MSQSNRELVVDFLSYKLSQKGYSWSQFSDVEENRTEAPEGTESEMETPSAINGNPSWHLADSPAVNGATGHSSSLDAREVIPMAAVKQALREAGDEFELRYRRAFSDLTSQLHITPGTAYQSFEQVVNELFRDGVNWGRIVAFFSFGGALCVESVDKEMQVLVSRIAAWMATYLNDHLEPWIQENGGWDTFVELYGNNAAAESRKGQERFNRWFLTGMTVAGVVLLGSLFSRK
Genome polyprotein, sequence (Q2Q167 whole entry): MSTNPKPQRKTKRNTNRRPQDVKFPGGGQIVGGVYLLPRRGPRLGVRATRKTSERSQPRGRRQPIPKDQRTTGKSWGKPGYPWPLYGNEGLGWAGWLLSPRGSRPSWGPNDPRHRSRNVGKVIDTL
Bcl-2-like protein 10, sequence (Q9HD36 whole entry): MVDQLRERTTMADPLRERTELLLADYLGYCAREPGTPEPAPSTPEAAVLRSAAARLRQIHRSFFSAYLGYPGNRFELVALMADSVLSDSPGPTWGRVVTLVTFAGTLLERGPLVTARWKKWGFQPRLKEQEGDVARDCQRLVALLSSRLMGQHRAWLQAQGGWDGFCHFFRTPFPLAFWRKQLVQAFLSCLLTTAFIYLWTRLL

O=C(OCC(=O)N1CCN(C(=O)c2ccco2)CC1)c1cc(-c2ccco2)nc2ccccc12
IC50 (Estrogen receptor beta [1]): > 50 µM (not active)
IC50 (Bcl-2-like protein 10): 12 µM (active)
IC50 (Estrogen receptor beta [2]): < 1.56 µM (active)
IC50 (Genome polyprotein): > 49.8 µM (not active)
IC50 (SUMO E1/E2): 1.93 µM (active)
IC50 [3]: 5.92 µM (active)
IC50 [4]: 2.86 µM (active)
IC50 [5]: 3.96 µM (active)
IC50 [6]: 6.8 µM (active)
CC50 [7]: > 40 µM (active)
IC50 (Bcl-2-like protein 1): > 109 µM (not active)

Cc1ccc2nc(NC(=O)CSCC(=O)OCC(=O)c3ccccc3)sc2c1
IC50 (Prothrombin): 0.0897 µM (active)
AC50 [8]: 5.78 µM (active)
EC50 [9]: 1.05 µM (active)
IC50 [10]: 5.17 µM (active)

Cc1c(O)ccc2c(CN3CCN(Cc4ccccc4)CC3)cc(=O)oc12
EC50 [11]: > 60 µM (not active)
EC50 (cells): 0.024 µM (active)
EC50 [12]: < 0.1 µM (active)

COc1ccc(C(C(=O)NC2CCCC2)N(Cc2ccccc2)C(=O)c2nsc(Cl)c2Cl)cc1 (stereo unspecified)
EC50 (Ion channel NompC): > 29.9 µM (not active)
EC50 (Mucolipin-3): > 29.9 µM (not active)

O=C(NC1CCCCCC1)c1ccc(CN2CCOCC2)cc1
EC50 [13]: 0.406 µM (active)
EC50 [14]: 0.889 µM (active)
EC50 [15]: < 0.1 µM (active)
EC50 [16]: 17.5 µM (active)
EC50 [17]: 0.67 µM (active)

CC(C)CCNC(=O)COc1ccc2c3c(c(=O)oc2c1)CCC3
EC50 (Estrogen receptor): 13.3 µM (not active)
